Like-named read-outs stand apart in the source and are kept apart here.

In patent US11505553B2, “2-(Het)aryl-substituted fused heterocycle derivatives as pesticides” (Bayer Aktiengesellschaft, priority 2017, dated 2022) one finds pest or weed control and Emax data, which are given here for 10 molecules.

Format in all cases: in vivo
Experiment [1] has as its system Myzus persicae. As to the kind of experiment: Myzus persicae oral test. The settings on record: 120 h, after 5 days, read-out: efficacy; for pest or weed control at 4 ppm: application rate 4 ppm; for pest or weed control at 0.8 ppm: application rate 0.8 ppm. As to the method: Solvent: 100 parts by weight of acetone To produce a suitable active ingredient formulation, 1 part by weight of active ingredient is dissolved with the stated parts by weight of solvent and made up to the desired concentration with water. 50 μl of the active ingredient preparation are transferred into microtitre plates and made up to a final volume of 200 μl with 150 μl of IPL41 insect medium (33%+15% sugar). Subsequently, the plates are sealed with parafilm, which a mixed population of green peach aphids (Myzus persicae) within a second microtitre plate is able to puncture and imbibe the solution. After 5 days, the efficacy in % is determined. 100% means that all the aphids have been killed; 0% means that no aphids have been killed.

For experiment [2], the system named is Ctenocephalides felis. As to the kind of experiment: Ctenocephalides felis oral test. The settings on record: 48 h, application rate 100 ppm in citrated cattle blood, after 2 days, read-out: efficacy (kill). As to the method:
Solvent: dimethyl sulfoxide To produce a suitable active ingredient formulation, 10 mg of active ingredient are mixed with 0.5 ml of dimethyl sulfoxide. Dilution with citrated cattle blood gives the desired concentration. About 20 unfed adult cat fleas (Ctenocephalides felis) are placed into a chamber which is closed at the top and bottom with gauze. A metal cylinder whose bottom end is closed with parafilm is placed onto the chamber. The cylinder contains the blood/active ingredient formulation, which can be imbibed by the fleas through the parafilm membrane. After 2 days, the kill in % is determined. 100% means that all of the fleas have been killed; 0% means that none of the fleas have been killed.

Experiment [3] concerns Myzus persicae. As to the kind of experiment: Myzus persicae spray test. To be noted: foliar, 120 h, Chinese cabbage leaf discs, after 5 days, read-out: efficacy; for pest or weed control at 100 g/ha: application rate 100 g/ha. As for the experimental part:
(§1) Solvent: 78 parts by weight of acetone • • 1.5 parts by weight of dimethylformamide Emulsifier: alkylaryl polyglycol ether To produce a suitable active ingredient formulation, 1 part by weight of active ingredient is dissolved with the specified parts by weight of solvent and made up to the desired concentration with water containing an emulsifier concentration of 1000 ppm. To produce further test concentrations, the formulation is diluted with emulsifier-containing water. Discs of Chinese cabbage leaves (Brassica pekinensis) infested by all stages of the green peach aphid (Myzus persicae) are sprayed with an active ingredient formulation of the desired concentration. After 5 days, the efficacy in % is determined. 100% means that all the aphids have been killed; 0% means that no aphids have been killed.

For experiment [4], the system named is Ctenocephalides felis. As to the kind of experiment: Ctenocephalides felis in vitro contact test with adult cat fleas. To be noted: application rate 5 μg/cm^2 (=500 g/ha), after 48 h, adult cat fleas dead or moribund, read-out: efficacy. As for the experimental part:
For the coating of the test tubes, 9 mg of active ingredient are first dissolved in 1 ml of acetone p.a. and then diluted to the desired concentration with acetone p.a. 250 μl of the solution are distributed homogeneously on the inner walls and the base of a 25 ml glass tube by turning and rocking on an orbital shaker (rocking rotation at 30 rpm for 2 h). With 900 ppm of active ingredient solution and internal surface area 44.7 cm^2, given homogeneous distribution, an area-based dose of 5 μg/cm^2 is achieved. After the solvent has evaporated off, the tubes are populated with 5-10 adult cat fleas (Ctenocephalides felis), sealed with a perforated plastic lid and incubated in a horizontal position at room temperature and ambient humidity. After 48 h, efficacy is determined. To this end, the tubes are stood upright and the fleas are knocked to the base of the tube. Fleas which remain motionless at the base or move in an uncoordinated manner are considered to be dead or moribund. […] 100% efficacy means that all the fleas were dead or moribund. 0% efficacy means that no fleas were harmed.

The subject of experiment [5] is Myzus persicae. As to the kind of experiment: Myzus persicae spray test (MYZUPE), contrastive examples. The settings on record: 120 h, 5 dat, read-out: % efficacy. As for the experimental part: as §1, with “78.0” for “78”, “chinese” for “Chinese”, “the desired time,” for “5 days,”, “all” for “all the”
In experiment [6] the test system is Myzus persicae. As to the kind of experiment: Myzus persicae drench test (MYZUPE D). To be noted: soil, 240 h, 10 dat, read-out: % efficacy. As for the experimental part:
Solvent: 7 parts by weight of dimethylformamide Emulsifier: 2 parts by weight of alkylaryl polyglycol ether To produce an appropriate active ingredient formulation, 1 part by weight of active ingredient is mixed with the stated amounts of solvent and emulsifier, and the concentrate is diluted with water to the desired concentration, it being necessary to take into account soil volume into which drenching is effected. It should be ensured that a concentration of 40 ppm of emulsifier in the soil is not exceeded. For production of further test concentrations, the mixture is diluted with water. Savoy cabbage plants (Brassica oleracea) in earth pots, infested by all stages of the green peach aphid (Myzus persicae), are drenched with an active ingredient formulation of the desired concentration. After the desired time, the efficacy in % is determined. 100% means that all aphids have been killed; 0% means that no aphids have been killed.

In experiment [7] the test system is Nilaparvata lugens. As to the kind of experiment: Nilaparvata lugens spray test (NILALU). To be noted: 96 h, 4 dat, read-out: % efficacy. As to the method: Solvent: 52.5 parts by weight of acetone • 7 parts by weight of dimethylformamide
Emulsifier: alkylaryl polyglycol ether
To produce an appropriate active ingredient formulation, 1 part by weight of active ingredient is dissolved with the stated parts by weight of solvent and made up with water containing an emulsifier concentration of 1000 ppm until the desired concentration is attained. For production of further test concentrations, the mixture is diluted with emulsifier-containing water. If addition of ammonium salts or/and penetrants is required, these are each added to the preparation solution in a concentration of 1000 ppm.
Rice plants (Oryza sativa) are sprayed with an active ingredient formulation of the desired concentration and then populated with larvae of the rice cicada (Nilaparvata lugens).
After the desired time, the efficacy in % is determined. 100% means that all rice cicadas have been killed; 0% means that no rice cicadas have been killed.

Experiment [8] deals with Nilaparvata lugens. As to the kind of experiment: Nilaparvata lugens test (NILALU S). The settings on record: read-out: % efficacy. As for the experimental part:
Solvent: 14 parts by weight of dimethylformamide Emulsifier: 2 parts by weight of alkylaryl polyglycol ether To produce an appropriate active ingredient formulation, 1 part by weight of active ingredient is dissolved with the stated parts by weight of solvent and emulsifier and made up with water until the desired concentration is attained. For production of further test concentrations, the mixture is diluted with water. If addition of ammonium salts or/and penetrants (rapeseed oil methyl ester) is required, these are each pipetted into the finished preparation solution in a concentration of 1000 ppm after the dilution. Rice plants (Oryza sativa, var. Balilla) are treated by spraying with the active ingredient formulation in the desired concentration and then populated with L3 larvae of the brown planthopper (Nilaparvata lugens). After the desired time, the kill in % is determined. 100% means that all planthoppers have been killed and 0%, means that no planthoppers have been killed.

For experiment [9], the system named is Myzus persicae. As to the kind of experiment: Myzus persicae spray test (MYZUPE S), bell pepper plants. To be noted: 144 h, 6 dat, read-out: % efficacy. As to the method: Solvent: 14 parts by weight of dimethylformamide Emulsifier: alkylaryl polyglycol ether To produce an appropriate active ingredient formulation, 1 part by weight of active ingredient is dissolved with the stated parts by weight of solvent and made up with water containing an emulsifier concentration of 1000 ppm until the desired concentration is attained. For production of further test concentrations, the mixture is diluted with emulsifier-containing water. If addition of ammonium salts or/and penetrants is required, these are each added to the preparation solution in a concentration of 1000 ppm. Bell pepper plants (Capsicum annuum) severely infested by the green peach aphid (Myzus persicae) are treated by spraying with the active ingredient formulation in the desired concentration. After the desired time, the kill in % is determined. 100% means that all animals have been killed; 0% means that no animals have been killed.

In experiment [10] the test system is Phaedon cochleariae. As to the kind of experiment: Phaedon cochleariae spray test (PHAECO), contrastive examples. The settings on record: 168 h, 100 g/ha, 7 dat, read-out: % efficacy. As for the experimental part: Solvent: 78.0 parts by weight of acetone • • 1.5 parts by weight of dimethylformamide Emulsifier: alkylaryl polyglycol ether To produce an appropriate active ingredient formulation, 1 part by weight of active ingredient is dissolved with the stated parts by weight of solvent and made up with water containing an emulsifier concentration of 1000 ppm until the desired concentration is attained. For production of further test concentrations, the mixture is diluted with emulsifier-containing water. Discs of chinese cabbage leaves (Brassica pekinensis) are sprayed with an active ingredient formulation of the desired concentration and, after drying, populated with larvae of the mustard beetle (Phaedon cochleariae). After the desired time, the efficacy in % is determined. 100% means that all beetle larvae have been killed; 0% means that no beetle larvae have been killed.

On to `CN(C)C(=O)Nc1ccc(S(C)(=O)=O)c(-c2nc3cc(C(F)(F)F)nnc3n2C)n1` [Example I-4], for which the pest or weed control at 4 ppm in experiment [1] was 100%. In [2], the pest or weed control at 100 ppm came to 100%.
Regarding `CNC(=O)Nc1ccc(S(C)(=O)=O)c(-c2nc3cc(C(F)(F)F)nnc3n2C)n1` [Example I-5], in experiment [1], the pest or weed control at 0.8 ppm was 100% and the pest or weed control at 4 ppm amounted to 100%. Further, the pest or weed control at 100 ppm in experiment [2] came out at 100%. The pest or weed control at 100 g/ha in experiment [3] turned out to be 90%. In addition, the pest or weed control at 5 µg/cm2, 500 g/ha in [4] worked out at 100%.
For the molecule `CCS(=O)(=O)c1ccc(NC(=O)NC)nc1-c1nc2cc(C(F)(F)C(F)(F)F)nnc2n1C` [Example I-7], in experiment [5], the Emax at 4 g/ha worked out at 100%.
Turning to `CCS(=O)(=O)c1ccc(N(C)C(=O)NC)nc1-c1nc2cc(C(F)(F)C(F)(F)F)nnc2n1C` [Example I-8], the pest or weed control at 4 ppm in [1] was 100%. Further, the Emax at 0.8 ppm in experiment [6] stood at 99%. In experiment [7], the Emax at 4 g/ha stood at 50%.
On to `CCS(=O)(=O)c1ccc(NC(=O)N(C)C)nc1-c1nc2cc(C(F)(F)C(F)(F)F)nnc2n1C` [Example I-9], for which the pest or weed control at 4 ppm in [1] was found to be 100%. The Emax at 0.8 ppm in [6] is 98%.
For the molecule `CNC(=O)Nc1ccc(S(C)(=O)=O)c(-c2nc3cc(C(F)(F)C(F)(F)F)nnc3n2C)n1` [Example I-10], in experiment [1], the pest or weed control at 4 ppm amounted to 100%. Also, the Emax at 0.8 ppm was 95% in experiment [8] (168 h, 7 dat) and 80% in experiment [8] (336 h, 14 dat).
In the case of `CN(C)C(=O)Nc1ccc(S(C)(=O)=O)c(-c2nc3cc(C(F)(F)C(F)(F)F)nnc3n2C)n1` [Example I-11], the pest or weed control at 4 ppm in [1] amounted to 100%. In addition, the Emax at 0.8 ppm in [6] amounted to 95%; in [8] (336 h, 14 dat), 85%.
Regarding `CCS(=O)(=O)c1ccc(N(C)C(=O)N(C)C)nc1-c1nc2cc(C(F)(F)F)nnc2n1C` [Example I-12], in experiment [1], the pest or weed control at 0.8 ppm came to 100% and the pest or weed control at 4 ppm was found to be 100%. In addition, the pest or weed control at 20 g/ha in [3] (application rate 20 g/ha) turned out to be 90%. Further, in experiment [3], the pest or weed control at 100 g/ha worked out at 100%. The Emax at 4 g/ha in experiment [5] turned out to be 90%. Moreover, the Emax at 0.8 ppm in experiment [9] is 90%.
Turning to `CCS(=O)(=O)c1ccc(N(C)C(=O)N(C)C)nc1-c1nc2cc(C(F)(F)C(F)(F)F)nnc2n1C` [Example I-13], the pest or weed control at 4 ppm in experiment [1] was 100%. The Emax at 0.8 ppm in [6] came to 95%. The Emax at 4 g/ha in experiment [5] turned out to be 90%.
Take `CCNC(=O)Nc1ccc(S(=O)(=O)CC)c(-c2nc3cc(C(F)(F)F)nnc3n2C)n1` [Prior art according to WO2017/025419, reference compound]: the Emax at 4 g/ha in experiment [5] and in experiment [7] was 0% in each case. Further, the Emax at 100 g/ha in [10] was determined as 50%. Moreover, in experiment [9], the Emax at 0.8 ppm turned out to be 0%.
